Data taken from patent publication EP0062018A1, “Novel phenyl-piperidines” (priority 1981, dated 1982).
Structures can show the parent of a compound that is named as a salt. Where two headings read alike, the source gives them in different places. One block for each compound: values may come before it.

How the values were obtained:
[1] = tested on: rabbit right atria; assay: Chronotropic effect (heart frequency) in isolated spontaneously beating right atria; assay type: cell-based; conditions: for Emax / EC50: Oryctolagus cuniculus, rabbit right atria, heart rate; for Emax: read-out: HR ISA; for EC50: cumulative concentrations, Krebs-buffer pH 7.4, 32°C, read-out: HR EC50; for positive chronotropic effect: result in words, isolated rabbit right atria
Description: (§1) Pharmacological studies on cardiac effects on heart frequency and contractility in isolated right atria and papillary muscle from rabbit. Rabbits with an average weight of 2.5 kg were killed by a blow and the hearts were rapidly removed. The right atria and a papillary muscle from the right ventricle were isolated and set up to contract isometrically in an organ bath. The bath contained 50 ml Krebs-buffer (pH 7.4) and the temperature was kept at 32°C. The contractions were measured by means of a force displacement transducer (Grass Model FT03) coupled to a Grass Model 7 Polygraph with a […] (Grass Model 7PIF). The spontaneously beating right atria was stretched to a resting tension high enough to measure the contractions and to trigger a tachograph for registration of the frequency. The papillary muscle was stretched to the length at which maximal tension was developed and was driven at a frequency of 1 Hz by a current 20 per cent above treshold and with a duration of 5 msec. After 60 min. equilibration, dose response curves to cumulative concentrations of isoprenaline were constructed for chronotropic effect, i.e. increase in frequency (atria) and positive inotropic effect, i.e. increase in contractility (papillary muscle). After wash-out similar curves were constructed for the compounds according to the invention. The positive inotropic agent dopamine was included for comparison. In order to establish the maximal chronotropic and inotropic responses of the preparations, isoprenaline was added immediately after the maximal concentrations of the compounds. The maximal effects of the compounds compared with the maximal effect of isoprenaline are expressed as intrinsic activity (ISA).

[2] = tested on: rabbit right ventricle papillary muscle; assay: Positive inotropic effect (contractility) in isolated electrically driven papillary muscle; assay type: cell-based; conditions: Oryctolagus cuniculus; for Emax: papillary muscle, read-out: Tmax ISA; for EC50: rabbit right ventricle papillary muscle, read-out: Tmax EC50
Description: as §1

[3] = intrinsic activity: maximal effect compared with maximal effect of isoprenaline
[4] = driven at 1 Hz, Krebs-buffer pH 7.4, 32°C
[5] = Tested after β-blockade, intrinsic activity vs isoprenaline

EC50 [2, 4]: 19.7 µM
SMILES: NCCc1ccc(O)c(O)c1 [Dopamine, reference compound]
Emax [1, 3]: 91% | EC50 [1]: 14.2 µM | positive chronotropic effect [1]: marked positive chronotropic effect in doses which caused positive inotropy | Emax [2, 3]: 78%

SMILES: CCCN1CCCC(c2cc(O)cc(O)c2)C1 (centres unmarked) [Example 1, 3=(3,5=Dihydroxyehenyl)N-n-eroeyleiperidine hydrobromide]
Emax [1, 3]: 0% | positive chronotropic effect [1]: no positive chronotropic effect | Emax [2, 3]: 30% | EC50 [2, 4]: 107 µM

SMILES: CCN1CCCC(c2cc(O)cc(O)c2)C1 (centres unmarked) [Example 2, 3-(3,5-Dihydroxyehenyl)-N-ethylpiperidine hydrobromide]
Emax [1, 3]: 0% | Emax [2, 3]: 32% | EC50 [2, 4]: 298 µM

SMILES: CN1CCCC(c2cc(O)cc(O)c2)C1 (centres unmarked) [Example 3, 3-(3,5-Dihydroxyphenl)-N-methlpiperidine]
Emax [1, 3]: 0% | Emax [2, 3]: 37% | EC50 [2, 4]: 11 µM

SMILES: CCCCN1CCCC(c2cc(O)cc(O)c2)C1 (centres unmarked) [Example 5]
Emax [1, 5]: 0% | Emax [2, 5]: 42% | EC50 ([2]; Tested after β-blockade): 18.4 µM

SMILES: CCCCCN1CCCC(c2cc(O)cc(O)c2)C1 (centres unmarked) [Example 6]
Emax [1, 3]: 0% | Emax [2, 3]: 43% | EC50 [2, 4]: 0.24 µM

SMILES: CC(C)N1CCCC(c2cc(O)cc(O)c2)C1 (centres unmarked) [Example 7]
Emax [1, 5]: 0% | Emax [2, 5]: 26% | EC50 ([2]; Tested after β-blockade): 43 µM

EC50 [2, 4]: 0.01 µM
SMILES: CC(C)NCC(O)c1ccc(O)c(O)c1 (centres unmarked) [Isoprenaline, reference compound]
Emax [1, 3]: 100% | EC50 [1]: 0.003 µM | positive chronotropic effect [1]: marked positive chronotropy in doses significantly lower than those producing positive inotropy | Emax [2, 3]: 100%
